{
  "source": "patent US20090062255A1",
  "about": "“TUMOR-TARGETING EVALUATION METHODOLOGY AND COMPOUNDS RELATED THERETO” (THALLION PHARMACEUTICALS INC., priority 2007, published 2009)",
  "key": {"[1]": {"assay": "in vivo", "conditions": "CD-1 nu/nu, mouse, iv"}, "[2]": {"test_system": "U 373 astrocytoma cell line", "assay": "MTT cytotoxicity, U 373 cell line", "format": "cell-based", "conditions": "U373 MG, 96 h, Human", "description": "The cytotoxic activity of Compound 1 was further evaluated using a panel of brain tumor cell lines. This study was performed in collaboration with INSERM (Grenoble, France). Tumor cells (5,000 to 10,000 cells per well depending on their doubling time) were plated in 96-well flat-bottom plates and incubated for 24 hours before treatment. Tumor cells were then incubated for 96 hours with seven different concentrations of Compound 1: […], 0.01, and 0.001 μM. The in vitro cytotoxic activity was determined by a standard MTT assay."}, "[3]": {"target": "T1, peripheral benzodiazepine receptor (PBR) (Rattus norvegicus, UniProt P16257)", "T1 construct": "CBR and PBR were obtained from rat brain and heart membrane-fractions, respectively; from tissue; host or cells: Wistar rat heart membranes", "assay": "In-house PBR binding assay ([3H]PK11195, rat heart mitochondrial membranes)"}, "[4]": {"test_system": "prenylation of Ras, RAP1A and HDJ2 (FTase, GGTase I)", "assay": "Protein prenylation immunoblot (FTase and GGTase I activities) in MCF-7 cells", "format": "cell-based, human", "conditions": "MCF7 cells, 3, 10 and 30 μM, 24 h; listed as ECO-4601", "description": "It was first verified if ECO-4601 interferes with Ras processing by monitoring FTase and GGTase I activities by immunoblot analysis. For these experiments, exponentially growing MCF-7 (human breast tumor) cells were seeded in 60 mm cell culture dishes at a density of 2.5×10^6 cells per dish. After an 18 h incubation period, ECO-4601 or lovastatin (Sigma-Aldrich, St. Louis, Mo.) were added at a final concentration of 3, 10 and 30 μM for 24 h. Cells were also treated with the vehicle alone (0.05% DMSO) for the same incubation periods. Treated and control cells were lysed in ice-cold RIPA buffer (50 mM Tris-HCl pH 7.4, 1% Triton X-100, 1% deoxycholate, 0.1% SDS, 150 mM NaCl, and 1 mM EDTA) containing protease inhibitors (Roche, Mannheim, Germany) and phosphatase inhibitors (EMD Biosciences, Calbiochem, San Diego, Calif.) for 20 minutes on ice. After lysis, cell debris was removed by centrifugation at 12000×g for 10 min. […] Bound antibodies were detected using horseradish peroxidase-conjugated secondary antibodies (Jackson ImmunoResearch Laboratories Inc., West Grove, Pa.) for 1 h at room temperature in 0.5% skim milk-TBS, visualized by treating the membranes with enhanced chemiluminescence reagents (Millipore, Mississauga, ON, Canada) and exposing them to BioMax Light Films (Kodak, Mississauga, ON, Canada). […]"}, "[5]": {"test_system": "phosphorylation of Raf-1 and ERK1/2 (Ras-MAPK signaling pathway)", "assay": "Western blot of EGF-induced Raf-1 and ERK1/2 phosphorylation in tumor cells", "format": "cell-based, human", "conditions": "10 μM", "description": "The effect of ECO-4601 on downstream events of Ras signaling was subsequently examined by monitoring the phosphorylation levels of Raf-1 and ERK1/2 by Western blot analysis. To study the effect of ECO-4601 on the Ras-MAPK signaling pathway, exponentially growing cells (human breast MCF-7 tumor cells, human breast MDA-MB-231 tumor cells, human glioma U 87-MG tumor cells and human prostate PC-3 tumor cells) were seeded onto 60 mm tissue culture dishes (0.5 to 0.8×10^6 cells per dish) for 24 h. The media was removed and cells were treated with 10 μM ECO-4601 in culture medium supplemented with 0.1% FBS for 30 min, 1 h, 4 h and 6 h, and subsequently exposed to EGF at 50 ng/mL for 10 min at 37° C. Control plates consisted of cells incubated in culture medium containing 0.1% FBS and 0.05% DMSO (vehicle) with or without EGF stimulation. At the end of each treatment, media was removed and cells rinsed with ice-cold PBS. Cells were then harvested by scraping and cell pellets were lysed in ice-cold RIPA buffer for 20 minutes on ice. Unsolubilized material was pelleted and discarded. The protein concentration of each lysate was quantified using the Bio-Rad protein assay (Bio-Rad Laboratories). Equivalent amounts of protein (20-30 μg protein) were separated on 10% or 12% SDS-PAGE under reducing conditions, transferred onto nitrocellulose membranes (0.2 μm; Bio-Rad Laboratories) and blotted as above with phospho-c-Raf (Ser338) and c-Raf (Cell Signaling Technology Inc., Boston, Mass.), phospho-p44/42 (Thr2O2/Tyr204, p-ERK1/2) and p44/42 (ERK1/2) MAP Kinases (Cell Signaling Technology Inc.) and GAPDH (SantaCruz Biotechnology Inc.)."}},
  "note": "“Also recorded” adds a separate entry of the source.",
  "data": [
    {"smiles": "CC(C)=CCC/C(C)=C/CC/C(C)=C/CN1C(=O)c2cccc(O)c2N(C)c2c(O)cc(O)cc21", "note": "[Compound 2, 10-farnesyl-4,6,8-trihydroxy-5-methyl-5,10-dihydro-dibenzo[b,e][1,4]diazepin-11-one]", "values": [
      {"measurement": "MTD", "setting": "[1]", "value": "> 100", "unit": "mg/kg"}
    ]},
    {"smiles": "CC(C)=CCC/C(C)=C/CC/C(C)=C/CN1C(=O)c2cccc(O)c2Nc2c(O)cc(O)cc21", "note": "[Compound 1, 10-farnesyl-4,6,8-trihydroxy-5,10-dihydrodibenzo[b,e][1,4]diazepin-11-one]", "values": [
      {"measurement": "IC50", "setting": "[2]", "value": "3.8 ± 1.4", "unit": "µM"},
      {"measurement": "EC50", "setting": "[3]", "value": 2800, "unit": "nM"},
      {"measurement": "PBR binding (in words)", "setting": "[3]", "value": "bind the PBR"},
      {"measurement": "Ki", "setting": "[3]; Ki=EC50/(1+[ligand]/Kd), [ligand]=1.6 nM, read-out: calculated Ki", "value": "~1400", "unit": "nM"},
      {"measurement": "IC50", "setting": "[3]; in-house radioligand-binding assay", "value": 2700, "unit": "nM"},
      {"measurement": "effect on protein prenylation (mobility shift of Ras, RAP1A and HDJ2)", "setting": "[4]", "value": "does not inhibit protein prenylation; also recorded: no effect"},
      {"measurement": "amount of total Raf-1", "setting": "[5]", "value": "decrease"},
      {"measurement": "time to complete inhibition of protein phosphorylation", "setting": "[5]", "value": "≤ 6", "unit": "h"},
      {"measurement": "inhibition of EGF-induced phosphorylation of Raf-1 and ERK1/2", "setting": "[5]; MCF-7, MDA-MB-231, U 87-MG and PC-3 cells", "value": "strong inhibition"}
    ]}
  ]
}
